This is an account of results in ChEMBL document CHEMBL1201862, “PubChem BioAssay data set” (2004).

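Assay format: 96-well plates, 48-hour exposure. At the GI50, growth is halved.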 Activity calls are given as the source filed them. Rule as the data show it: active = GI50 up to about 1.1 µM and inactive = higher.

Among the test systems are HCT-15; U-251; CCRF-CEM; KM-20L2; 786-0; A498; SNB-78; LXFL 529; DMS-273; DLD-1; NCI-H23; NCI-H226; NCI-H460; M14; HOP-18; HCT-116; SR; DU-145; Hs-578T; BT-549.
Assay in all cases: NCI anticancer screen, dose series, 48 h

Consider `C=C1Oc2nc3ccccc3c(=O)n2C1(C)C`, for which the GI50 in the assay on HCT-15 is more than 100 µM; in the assay on U-251, > 100 µM (inactive); in the assay on CCRF-CEM it was > 100 µM (inactive); in the assay on KM-20L2, > 100 µM (inactive); in the assay with 786-0, > 100 µM (inactive); in the assay with A498, > 100 µM (inactive). In addition, the GI50 in the assay on SNB-78, with LXFL 529, with DMS-273, in the assay with DLD-1, in the assay with NCI-H23 and in the assay with NCI-H226 was > 100 µM (inactive) throughout. For the same compound, the GI50 with NCI-H460, in the assay on M14, in the assay on HOP-18 and with HCT-116 was > 100 µM (inactive) each time.

In the case of `CCOC(=O)/C(=C/c1ccc[nH]1)P(=O)(OCC)OCC`, the GI50 in the assay with U-251, with CCRF-CEM, in the assay with KM-20L2, in the assay on 786-0, in the assay with SNB-78 and in the assay with LXFL 529 was > 100 µM (inactive) each time. Also, the GI50 in the assay with DMS-273, in the assay with DLD-1, with NCI-H23, in the assay on NCI-H226, in the assay on NCI-H460 and with M14 was > 100 µM (inactive) each time. Further, the GI50 in the assay on HOP-18, in the assay with SR and in the assay on HCT-116 was > 100 µM (inactive) throughout.

With `O=C1NC2OCC(O)C(O1)C2O` (stereo not given), the GI50 in the assay with HCT-15 is more than 100 µM; in the assay with U-251, > 100 µM (inactive); in the assay on CCRF-CEM it was > 100 µM (inactive); in the assay on KM-20L2 it was > 100 µM (inactive); with 786-0, > 100 µM (inactive); in the assay on A498, > 100 µM (inactive). Moreover, the GI50 in the assay with SNB-78, with LXFL 529, with DMS-273, in the assay with DLD-1, in the assay with NCI-H23 and in the assay on NCI-H226 was > 100 µM (inactive) each time. The GI50 with NCI-H460, in the assay with M14, in the assay on HOP-18 and in the assay on SR was > 100 µM (inactive) in each case.

Regarding `COc1ccc(OC)c(/C=C/NC=O)c1`, the GI50 in the assay with HCT-15 is more than 100 µM; in the assay with U-251, > 100 µM (inactive); with CCRF-CEM, > 100 µM (inactive); in the assay with KM-20L2, > 100 µM (inactive); with 786-0 it was > 100 µM (inactive); in the assay on DU-145, > 100 µM (inactive). Besides, the GI50 in the assay with A498, with SNB-78, in the assay on LXFL 529, in the assay on DMS-273, in the assay with DLD-1 and in the assay with NCI-H23 was > 100 µM (inactive) in each case. Further, the GI50 with NCI-H226 was > 100 µM (inactive); with NCI-H460, > 100 µM (inactive); in the assay on M14, > 100 µM (inactive); with HOP-18, > 100 µM (inactive); in the assay with SR it was 22 µM (inactive); in the assay with HCT-116 it was > 100 µM (inactive).

In the case of `C[C@]12CC[C@H](OC3CCCCO3)CC1=CC[C@@H]1C2CC[C@]2(C)/C(=N/OCCC#N)CCC12` (stereo not given in full), the GI50 in the assay with HCT-15 was more than 100 µM; in the assay with U-251, 40.4 µM (inactive); with KM-20L2, 3.78 µM (inactive); in the assay on 786-0, 23.1 µM (inactive); in the assay on A498 it was > 100 µM (inactive); with SNB-78 it was 21.9 µM (inactive). The GI50 in the assay with LXFL 529 was 17.7 µM (inactive); in the assay on DMS-273 it was 76.7 µM (inactive); in the assay on DLD-1 it was > 100 µM (inactive); in the assay with NCI-H23, 11.4 µM (inactive); with NCI-H460, 15.2 µM (inactive); with M14, > 100 µM (inactive). Also, the results for the GI50 in the assay with HOP-18 and with HCT-116 were > 100 µM (inactive) and 5.73 µM (inactive), respectively.

As to `CN(C)CC1CCCC1=O` (stereo not given), the GI50 is 0.378 µM with HCT-15; 6.82 µM (inactive) in the assay on U-251; 0.138 µM (active) in the assay on CCRF-CEM; 1.67 µM (inactive) with KM-20L2; 7.53 µM (inactive) in the assay on 786-0; 17.5 µM (inactive) with DU-145. Also, the GI50 in the assay with A498 was 10.5 µM (inactive); with SNB-78, 2.48 µM (inactive); in the assay on Hs-578T, 17.9 µM (inactive); with LXFL 529, 0.41 µM (active); in the assay with DMS-273, 1.55 µM (inactive); in the assay with DLD-1 it was 0.195 µM (active). Further, the GI50 in the assay on BT-549 was 4.97 µM (inactive); with NCI-H23, 4.48 µM (inactive); in the assay with NCI-H226, 14.4 µM (inactive); in the assay with NCI-H460, 10.5 µM (inactive); in the assay on M14, 1.16 µM (inactive); in the assay with HOP-18, 1.73 µM (inactive). Besides, the GI50 is 0.0479 µM (active) in the assay on SR and 0.944 µM (active) with HCT-116.

For `Cc1ccccc1N1C(=O)C2C=CC(n3[nH]c(=O)n(Cc4ccccc4)c3=O)CC2C1=O` (stereo not given), the GI50 in the assay on HCT-15 is more than 100 µM; in the assay on U-251, > 100 µM (inactive); in the assay on CCRF-CEM it was > 100 µM (inactive); with KM-20L2, > 100 µM (inactive); in the assay with 786-0 it was > 100 µM (inactive); in the assay on A498 it was > 100 µM (inactive). Besides, the GI50 with SNB-78, in the assay on LXFL 529, in the assay with DMS-273, in the assay on DLD-1, with NCI-H23 and in the assay with NCI-H226 was > 100 µM (inactive) in each case. Moreover, the GI50 in the assay with NCI-H460, in the assay with M14, in the assay on HOP-18 and with HCT-116 was > 100 µM (inactive) in each case.

For `CCCCCCCCCCCC(=O)OCC(C[As](=O)(O)O)OC(=O)CCCCCCCCCCC` (stereo not given), the GI50 was 8.39 µM with HCT-15; 1.54 µM (inactive) in the assay with U-251; 3.72 µM (inactive) in the assay on CCRF-CEM; 5.66 µM (inactive) in the assay with KM-20L2; 13.4 µM (inactive) with 786-0; 17.5 µM (inactive) with DU-145. Also, the GI50 is 5.15 µM (inactive) in the assay on A498; 2.82 µM (inactive) with SNB-78; 4.2 µM (inactive) in the assay on Hs-578T; 2.06 µM (inactive) with LXFL 529; 2.47 µM (inactive) in the assay on DMS-273; 15.8 µM (inactive) with DLD-1. Further, the GI50 in the assay on BT-549 was 7.1 µM (inactive); with NCI-H23 it was 5.61 µM (inactive); in the assay with NCI-H226, 16.2 µM (inactive); in the assay on NCI-H460 it was 4.05 µM (inactive); in the assay on M14, 1.97 µM (inactive); in the assay on HOP-18, 3.93 µM (inactive). The GI50 with SR was 3.64 µM (inactive); in the assay with HCT-116 it was 5.61 µM (inactive).

`CSC(=N)N1N=C2/C(=C/c3ccccc3)CCC[C@H]2[C@H]1c1ccccc1`: the GI50 in the assay on HCT-15 was 6.52 µM; in the assay with U-251, 12 µM (inactive); in the assay with CCRF-CEM, 2.6 µM (inactive); with KM-20L2 it was 2.34 µM (inactive); in the assay on 786-0, 5.47 µM (inactive); in the assay with A498, 4.11 µM (inactive). For the same compound, the GI50 is 16 µM (inactive) with SNB-78; 4.55 µM (inactive) in the assay on LXFL 529; 2.75 µM (inactive) in the assay with DMS-273; 3.48 µM (inactive) in the assay on DLD-1; 4.88 µM (inactive) with NCI-H23; 2.64 µM (inactive) with NCI-H226. In addition, the GI50 was 5.68 µM (inactive) with NCI-H460; 3.67 µM (inactive) with M14; 1.07 µM (active) in the assay with HOP-18; 1.85 µM (inactive) in the assay on SR; 2.83 µM (inactive) with HCT-116.

For the compound `COC(=O)c1cc2c(s1)C(=O)c1ccccc1-2`, the GI50 in the assay on HCT-15 was more than 100 µM; in the assay on U-251 it was > 100 µM (inactive); with CCRF-CEM, > 100 µM (inactive); in the assay on KM-20L2, > 100 µM (inactive); in the assay with 786-0 it was > 100 µM (inactive); with A498, > 100 µM (inactive). Moreover, the GI50 in the assay with SNB-78, in the assay on LXFL 529, in the assay on DMS-273, in the assay on DLD-1, in the assay with NCI-H23 and in the assay on NCI-H226 was > 100 µM (inactive) throughout. For the same compound, the GI50 in the assay with NCI-H460, in the assay on M14, with HOP-18 and in the assay with HCT-116 was > 100 µM (inactive) in each case.

For the compound `C=C1CCC2[C@@H](CCC3[C@]2(C)CCC[C@]3(C)C(=O)OC)C1CCO` (stereo not given in full), the GI50 was 11.2 µM in the assay with HCT-15; 11.1 µM (inactive) with U-251; 10.5 µM (inactive) in the assay on CCRF-CEM; 9.66 µM (inactive) with KM-20L2; 18.3 µM (inactive) in the assay on 786-0; 15.8 µM (inactive) in the assay with A498. In addition, the GI50 with SNB-78 is 16.3 µM (inactive); in the assay on LXFL 529, 8.89 µM (inactive); in the assay on DMS-273 it was 10.5 µM (inactive); in the assay on DLD-1, 14.2 µM (inactive); in the assay with NCI-H23 it was 9.35 µM (inactive); with NCI-H226, 14.4 µM (inactive). Also, the GI50 in the assay on NCI-H460 is 6.49 µM (inactive); in the assay with M14, 13.6 µM (inactive); in the assay on HOP-18, 16 µM (inactive); with HCT-116 it was 5.98 µM (inactive).

On to `COc1ccc(C2C3C(=O)C=CC(=O)C3[C@@H]2C)cc1OC` (stereo not given in full), for which the GI50 with HCT-15 was 23.6 µM; with U-251, > 100 µM (inactive); in the assay with CCRF-CEM, > 10 µM (inactive); in the assay on KM-20L2 it was > 100 µM (inactive); in the assay on 786-0, 40.7 µM (inactive); with A498 it was > 100 µM (inactive). The GI50 with SNB-78 is > 100 µM (inactive); in the assay on LXFL 529 it was 42.4 µM (inactive); with DMS-273 it was 61.4 µM (inactive); with DLD-1 it was > 100 µM (inactive); in the assay with NCI-H23, > 100 µM (inactive); with NCI-H226, 81.7 µM (inactive). The GI50 in the assay on NCI-H460 is > 100 µM (inactive); in the assay on M14, > 100 µM (inactive); in the assay on HOP-18 it was > 100 µM (inactive); with HCT-116, 28.4 µM (inactive).
